According to US20050287192A1, “Wound bandage comprising a non-enzymatic antioxidant” (priority 2002, published 2005):
“Also recorded” adds a separate entry of the source.

Key:
Type in all cases: cell-based, human
leukocytes [1] = experiment: ability of leukocytes to kill bacteria in presence of additives in solution (CFU count); conditions: additive 10 mM in solution; leukocytes 1×10^5 cells/ml and Staphylococcus aureus 1×10^6 cells/ml, 37° C., two hours; FIG. 6
Procedure: The ability of leukocytes to kill bacteria in the presence of glutathione (10 mM) or N-acetylcysteine (10 mM) in solution was studied in the following manner: Leukocytes (1×10^5 cells/ml) and Staphylococcus aureus (1×10^6 cells/ml) were incubated together at 37° C. for two hours. The leukocytes were killed and the remaining bacteria were allowed to grow on a blood agar plate for 24 hours, after which the number of bacterial colonies (CFU) was calculated. Control samples without leukocytes were done in parallel with all the tests. A small number of colonies means that the leukocytes have good ability to kill bacteria.

leukocytes [2] = experiment: ability of leukocytes to be activated by zymosan after contact with cotton wool compresses; conditions: after contact with cotton wool compress with additive; FIG. 4
Procedure: The ability of the leukocytes to react against a microbial agent after contact with the cotton wool compresses was then tested by addition of zymosan, a fungal spore used to test the ability of the leukocytes to kill microbes.

leukocytes [3] = experiment: lipid peroxidation of leukocyte cell membranes measured with fluorescent probe DPPP; conditions: contact between leukocytes and treated cotton wool compress, DPPP fluorescence; FIG. 5
Procedure: Lipid peroxidation of cell membranes during the contact between leukocytes and cotton wool compresses was measured with a fluorescent probe, diphenyl-1-pyrenylphosphine (DPPP), which reacts with membrane peroxides and forms a fluorescent oxide, see Okimoto, Watanabe, et al., 2000 FEBS Letter, vol 474, pages 137-140.

leukocytes [4] = experiment: stress activation of leukocytes in contact with cotton wool compresses, release of reactive oxygen by luminol-enhanced chemiluminescence; conditions: cotton wool compress with physiological saline solution with glutathione, final concentration 0.05 mM, vs untreated compress; FIG. 3
Procedure: First of all leukocytes were isolated from human veinous blood and the cells were then left in contact with cotton wool compresses and stress activation of the cells was measured as the release of reactive oxygen with luminol-enhanced chemiluminiscense.
From FIG. 1 it is apparent that the leukocytes are activated on contact with cotton wool compresses.
The cellulose is then reduced again with cyanoborohydride.

SMILES	ability of leukocytes to kill bacteria (number of bacterial colonies, CFU) (leukocytes [1])	ability of leukocytes to be activated by zymosan (leukocytes [2])	lipid peroxidation of the cell membrane (leukocytes [3])	activation of leukocytes (release of reactive oxygen) (leukocytes [4])
CC(=O)N[C@@H](CS)C(=O)O [N-acetylcysteine]	kill the bacteria completely			
N[C@@H](CCC(=O)N[C@@H](CS)C(=O)NCC(=O)O)C(=O)O [glutathione]	kill the bacteria completely	retain the ability to be activated by zymosan	reduce the lipid peroxidation of the cell membrane	does not affect activation of the leukocytes; also recorded: somewhat increased quantity of reactive oxygen
